Activity calls are given as the source filed them. For most assays here, no stated cut-off is given here; in the data, actives have a measured Kd and inactives only a lower limit.
Legend:
[1] = molecular target: GTP-binding nuclear protein Ran (Homo sapiens, UniProt P62826)
[2] = molecular target: T1, Mitogen-activated protein kinase kinase kinase 3 (Homo sapiens, UniProt Q99759)
T1 sequence (Q99759 whole entry): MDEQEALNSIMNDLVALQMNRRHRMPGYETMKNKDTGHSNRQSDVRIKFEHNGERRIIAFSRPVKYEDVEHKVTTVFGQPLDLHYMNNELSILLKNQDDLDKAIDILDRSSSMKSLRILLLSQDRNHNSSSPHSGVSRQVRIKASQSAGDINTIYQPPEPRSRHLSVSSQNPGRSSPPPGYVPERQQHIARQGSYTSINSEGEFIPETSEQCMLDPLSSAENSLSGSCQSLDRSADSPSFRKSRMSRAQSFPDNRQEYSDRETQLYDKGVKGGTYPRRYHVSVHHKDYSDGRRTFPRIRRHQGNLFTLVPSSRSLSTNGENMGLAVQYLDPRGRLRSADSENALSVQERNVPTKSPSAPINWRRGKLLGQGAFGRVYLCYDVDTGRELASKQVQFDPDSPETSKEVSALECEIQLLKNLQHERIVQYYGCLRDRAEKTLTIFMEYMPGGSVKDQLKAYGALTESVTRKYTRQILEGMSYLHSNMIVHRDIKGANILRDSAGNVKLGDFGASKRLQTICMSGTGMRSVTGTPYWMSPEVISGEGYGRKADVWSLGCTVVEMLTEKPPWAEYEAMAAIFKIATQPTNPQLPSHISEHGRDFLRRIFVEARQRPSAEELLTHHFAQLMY

Ephrin type-B receptor 6 = molecular target: T2, Ephrin type-B receptor 6 (Homo sapiens, UniProt O15197)
T2 sequence (O15197 whole entry): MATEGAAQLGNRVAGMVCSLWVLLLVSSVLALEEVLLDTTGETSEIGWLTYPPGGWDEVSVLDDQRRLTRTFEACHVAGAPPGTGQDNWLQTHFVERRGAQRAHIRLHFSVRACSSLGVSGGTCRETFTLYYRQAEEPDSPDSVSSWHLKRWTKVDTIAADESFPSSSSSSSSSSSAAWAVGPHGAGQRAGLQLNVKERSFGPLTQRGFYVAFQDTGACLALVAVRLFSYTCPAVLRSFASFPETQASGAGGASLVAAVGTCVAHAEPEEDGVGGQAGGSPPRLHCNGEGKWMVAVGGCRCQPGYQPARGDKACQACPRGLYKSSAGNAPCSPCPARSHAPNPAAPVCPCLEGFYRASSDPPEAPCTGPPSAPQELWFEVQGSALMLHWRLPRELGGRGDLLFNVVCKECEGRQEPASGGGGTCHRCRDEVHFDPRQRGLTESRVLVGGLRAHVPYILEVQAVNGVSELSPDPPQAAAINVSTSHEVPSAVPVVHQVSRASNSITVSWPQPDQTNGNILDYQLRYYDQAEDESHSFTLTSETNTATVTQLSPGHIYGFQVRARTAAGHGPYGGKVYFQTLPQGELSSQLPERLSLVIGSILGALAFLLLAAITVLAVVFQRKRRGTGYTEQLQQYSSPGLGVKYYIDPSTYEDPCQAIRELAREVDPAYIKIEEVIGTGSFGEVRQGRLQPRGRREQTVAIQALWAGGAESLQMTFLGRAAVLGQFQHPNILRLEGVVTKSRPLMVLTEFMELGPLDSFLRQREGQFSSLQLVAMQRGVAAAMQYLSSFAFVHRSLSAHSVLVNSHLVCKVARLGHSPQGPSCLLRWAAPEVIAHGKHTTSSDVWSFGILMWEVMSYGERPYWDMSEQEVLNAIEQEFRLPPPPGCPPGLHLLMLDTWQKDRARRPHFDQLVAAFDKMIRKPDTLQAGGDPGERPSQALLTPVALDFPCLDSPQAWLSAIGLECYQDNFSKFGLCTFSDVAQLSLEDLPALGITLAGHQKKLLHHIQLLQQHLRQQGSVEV

Scaffold protein ILK = molecular target: T3, Scaffold protein ILK (Homo sapiens, UniProt Q13418)
T3 sequence (Q13418 whole entry): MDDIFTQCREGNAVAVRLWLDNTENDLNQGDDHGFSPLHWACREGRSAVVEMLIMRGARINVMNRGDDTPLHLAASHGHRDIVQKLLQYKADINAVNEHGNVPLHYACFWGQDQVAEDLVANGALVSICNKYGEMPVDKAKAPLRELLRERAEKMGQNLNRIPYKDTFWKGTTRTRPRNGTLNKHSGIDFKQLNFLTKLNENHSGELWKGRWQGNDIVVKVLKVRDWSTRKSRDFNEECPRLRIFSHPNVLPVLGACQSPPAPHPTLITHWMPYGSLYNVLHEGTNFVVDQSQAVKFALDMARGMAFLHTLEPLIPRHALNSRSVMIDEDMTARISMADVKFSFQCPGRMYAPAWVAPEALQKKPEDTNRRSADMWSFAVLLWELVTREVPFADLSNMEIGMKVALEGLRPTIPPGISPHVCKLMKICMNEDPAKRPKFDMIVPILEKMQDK

[3] = molecular target: TRAF2 and NCK-interacting protein kinase (Homo sapiens, UniProt Q9UKE5)
[4] = molecular target: DnaJ homolog subfamily A member 1 (Homo sapiens, UniProt P31689)
[5] = molecular target: Cyclin-dependent kinase 12 (Homo sapiens, UniProt Q9NYV4)
Cyclin-dependent kinase 12, sequence (Q9NYV4 whole entry): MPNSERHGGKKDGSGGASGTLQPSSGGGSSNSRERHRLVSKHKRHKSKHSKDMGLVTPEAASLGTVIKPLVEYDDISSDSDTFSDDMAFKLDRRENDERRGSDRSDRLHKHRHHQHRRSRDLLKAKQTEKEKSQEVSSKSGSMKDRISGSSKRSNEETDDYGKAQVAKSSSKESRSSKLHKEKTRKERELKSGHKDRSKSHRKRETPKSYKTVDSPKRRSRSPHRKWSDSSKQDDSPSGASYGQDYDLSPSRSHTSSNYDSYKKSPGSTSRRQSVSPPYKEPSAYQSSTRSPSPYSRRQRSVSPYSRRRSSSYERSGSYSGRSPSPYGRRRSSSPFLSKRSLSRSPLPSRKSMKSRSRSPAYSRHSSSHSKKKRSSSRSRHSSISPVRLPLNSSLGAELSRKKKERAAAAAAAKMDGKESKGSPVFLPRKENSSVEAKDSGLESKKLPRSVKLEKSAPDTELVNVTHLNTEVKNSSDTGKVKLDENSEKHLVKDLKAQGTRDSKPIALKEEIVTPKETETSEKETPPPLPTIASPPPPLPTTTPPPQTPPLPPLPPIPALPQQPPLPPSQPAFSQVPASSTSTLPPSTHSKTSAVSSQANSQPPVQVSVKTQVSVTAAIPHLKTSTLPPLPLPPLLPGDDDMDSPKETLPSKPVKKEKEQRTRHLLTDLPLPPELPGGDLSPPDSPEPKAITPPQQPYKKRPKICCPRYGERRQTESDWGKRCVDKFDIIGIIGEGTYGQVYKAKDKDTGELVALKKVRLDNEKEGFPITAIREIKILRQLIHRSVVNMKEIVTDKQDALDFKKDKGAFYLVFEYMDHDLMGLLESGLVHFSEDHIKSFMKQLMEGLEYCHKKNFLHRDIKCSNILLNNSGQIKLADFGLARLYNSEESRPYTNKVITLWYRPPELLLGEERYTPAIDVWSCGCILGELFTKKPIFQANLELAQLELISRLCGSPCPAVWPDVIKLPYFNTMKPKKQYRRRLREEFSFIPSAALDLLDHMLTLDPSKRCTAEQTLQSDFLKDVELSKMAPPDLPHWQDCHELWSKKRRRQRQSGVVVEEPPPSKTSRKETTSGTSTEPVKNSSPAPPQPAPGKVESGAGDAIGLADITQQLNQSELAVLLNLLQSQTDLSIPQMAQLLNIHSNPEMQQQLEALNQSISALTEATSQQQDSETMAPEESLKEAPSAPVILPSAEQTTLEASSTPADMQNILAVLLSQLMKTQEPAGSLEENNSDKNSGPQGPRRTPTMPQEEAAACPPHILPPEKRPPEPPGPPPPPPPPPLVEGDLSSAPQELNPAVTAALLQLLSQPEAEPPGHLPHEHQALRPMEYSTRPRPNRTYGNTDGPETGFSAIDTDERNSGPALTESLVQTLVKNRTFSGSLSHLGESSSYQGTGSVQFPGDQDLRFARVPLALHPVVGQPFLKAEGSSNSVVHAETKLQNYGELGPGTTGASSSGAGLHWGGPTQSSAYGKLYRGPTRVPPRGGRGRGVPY

TRAF2 and NCK-interacting protein kinase, sequence (Q9UKE5 whole entry): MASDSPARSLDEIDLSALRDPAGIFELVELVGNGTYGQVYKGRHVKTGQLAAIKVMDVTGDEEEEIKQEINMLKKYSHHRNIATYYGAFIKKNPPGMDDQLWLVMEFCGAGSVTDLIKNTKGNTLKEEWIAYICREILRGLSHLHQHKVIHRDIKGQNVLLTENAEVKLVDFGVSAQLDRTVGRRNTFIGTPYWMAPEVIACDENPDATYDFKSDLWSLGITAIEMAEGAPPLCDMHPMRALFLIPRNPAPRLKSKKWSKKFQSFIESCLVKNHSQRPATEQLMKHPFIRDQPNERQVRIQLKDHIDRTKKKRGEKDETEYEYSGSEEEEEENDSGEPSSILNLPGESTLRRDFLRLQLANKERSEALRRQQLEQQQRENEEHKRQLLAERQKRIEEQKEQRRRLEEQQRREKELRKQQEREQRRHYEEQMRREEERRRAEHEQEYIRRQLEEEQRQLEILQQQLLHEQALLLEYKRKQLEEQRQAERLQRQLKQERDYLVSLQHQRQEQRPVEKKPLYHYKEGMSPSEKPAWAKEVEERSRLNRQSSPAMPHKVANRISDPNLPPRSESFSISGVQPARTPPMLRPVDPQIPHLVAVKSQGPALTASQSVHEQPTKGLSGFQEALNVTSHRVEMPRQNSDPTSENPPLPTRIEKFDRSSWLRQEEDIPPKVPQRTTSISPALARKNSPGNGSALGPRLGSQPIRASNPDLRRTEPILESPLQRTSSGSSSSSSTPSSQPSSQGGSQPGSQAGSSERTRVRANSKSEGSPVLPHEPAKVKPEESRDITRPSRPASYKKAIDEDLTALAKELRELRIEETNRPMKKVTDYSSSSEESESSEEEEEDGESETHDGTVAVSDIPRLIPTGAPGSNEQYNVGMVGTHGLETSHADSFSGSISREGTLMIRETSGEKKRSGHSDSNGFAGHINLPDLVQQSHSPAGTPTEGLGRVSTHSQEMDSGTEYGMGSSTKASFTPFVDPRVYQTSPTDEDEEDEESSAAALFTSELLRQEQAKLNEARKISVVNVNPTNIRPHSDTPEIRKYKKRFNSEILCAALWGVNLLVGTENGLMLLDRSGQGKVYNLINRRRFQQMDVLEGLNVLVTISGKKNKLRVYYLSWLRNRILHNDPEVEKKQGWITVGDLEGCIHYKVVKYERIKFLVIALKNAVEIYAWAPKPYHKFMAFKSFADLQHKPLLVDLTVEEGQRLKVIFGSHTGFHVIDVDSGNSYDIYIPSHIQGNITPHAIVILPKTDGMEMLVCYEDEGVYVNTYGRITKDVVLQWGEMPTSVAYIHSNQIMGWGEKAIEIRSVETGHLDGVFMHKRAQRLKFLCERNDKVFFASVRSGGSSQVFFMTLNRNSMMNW
DnaJ homolog subfamily A member 1, sequence (P31689 whole entry): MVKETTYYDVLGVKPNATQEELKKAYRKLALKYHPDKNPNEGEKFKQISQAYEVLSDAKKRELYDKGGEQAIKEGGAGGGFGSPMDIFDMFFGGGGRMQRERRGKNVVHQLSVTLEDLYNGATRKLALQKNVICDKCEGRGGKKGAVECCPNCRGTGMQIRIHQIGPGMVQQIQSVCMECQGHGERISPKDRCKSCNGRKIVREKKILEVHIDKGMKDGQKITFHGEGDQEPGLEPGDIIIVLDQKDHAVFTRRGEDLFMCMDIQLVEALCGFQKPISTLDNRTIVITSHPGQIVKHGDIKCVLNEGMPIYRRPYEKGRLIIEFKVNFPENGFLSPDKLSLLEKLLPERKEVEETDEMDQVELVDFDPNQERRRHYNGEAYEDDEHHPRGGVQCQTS

Structure (SMILES)	Kd [1]	Kd [2]	Kd (Ephrin type-B receptor 6)	Kd (Scaffold protein ILK)	Kd [3]	Kd [4]	Kd [5]
Cc1cc([C@@H](C)Nc2ccccc2C(=O)O)c2nc(N3CCOCC3)cc(=O)n2c1 [AZD-6482]	> 30 µM (inactive)	> 30 µM (inactive)	> 30 µM (inactive)	> 30 µM (inactive)	> 30 µM (inactive)	> 30 µM (inactive)	> 30 µM (inactive)
COc1ccc(-c2ccc3c(N4CCOC[C@@H]4C)nc(N4CCOC[C@@H]4C)nc3n2)cc1CO [AZD-8055]	> 30 µM (inactive)	> 30 µM (inactive)	> 30 µM (inactive)	> 30 µM (inactive)	> 30 µM (inactive)	> 30 µM (inactive)	> 30 µM (inactive)
C[C@@H](Nc1cc(F)cc(F)c1)c1cc(C(=O)N(C)C)cc2c(=O)cc(N3CCOCC3)oc12 [AZD-8186]	> 30 µM (inactive)	> 30 µM (inactive)	> 30 µM (inactive)	> 30 µM (inactive)	> 30 µM (inactive)	> 30 µM (inactive)	> 30 µM (inactive)
Cc1ccc(NC(=O)c2ccc(CN3CC[C@H](N(C)C)C3)c(C(F)(F)F)c2)cc1Nc1nccc(-c2cncnc2)n1 [BAFETINIB]	> 30 µM (inactive)	> 30 µM (inactive)	> 30 µM (inactive)	> 30 µM (inactive)	> 30 µM (inactive)	> 30 µM (inactive)	> 30 µM (inactive)
CCS(=O)(=O)N1CC(CC#N)(n2cc(-c3ncnc4[nH]ccc34)cn2)C1 [BARICITINIB]	> 30 µM (inactive)	> 30 µM (inactive)	> 30 µM (inactive)	> 30 µM (inactive)	> 30 µM (inactive)	> 30 µM (inactive)	> 30 µM (inactive)
Cc1cc2c(F)c(Oc3ncnn4cc(OC[C@@H](C)OC(=O)[C@H](C)N)c(C)c34)ccc2[nH]1 [BRIVANIB ALANINATE]	> 30 µM (inactive)	> 30 µM (inactive)	> 30 µM (inactive)	> 30 µM (inactive)	> 30 µM (inactive)	> 30 µM (inactive)	> 30 µM (inactive)
CNC(=O)c1ccc(-c2cnc3ncc(Cc4ccc5ncccc5c4)n3n2)cc1F [CAPMATINIB]	> 30 µM (inactive)	> 30 µM (inactive)	> 30 µM (inactive)	> 30 µM (inactive)	> 30 µM (inactive)	> 30 µM (inactive)	> 30 µM (inactive)
O=C(c1ccc(F)c(F)c1Nc1ccc(I)cc1F)N1CC(O)([C@@H]2CCCCN2)C1 [COBIMETINIB]	> 30 µM (inactive)	> 30 µM (inactive)	> 30 µM (inactive)	> 30 µM (inactive)	> 30 µM (inactive)	> 30 µM (inactive)	> 30 µM (inactive)
Cc1nc(N)sc1-c1ccnc(Nc2ccc(N3CCOCC3)cc2)n1 [CYC-116]	> 30 µM (inactive)	> 30 µM (inactive)	0.073 µM	> 30 µM (inactive)	2.14 µM (active)	> 30 µM (inactive)	> 30 µM (inactive)
COC(=O)N[C@@H](C)CNc1nccc(-c2cn(C(C)C)nc2-c2cc(Cl)cc(NS(C)(=O)=O)c2F)n1 [ENCORAFENIB]	> 30 µM (inactive)	> 30 µM (inactive)	> 30 µM (inactive)	> 30 µM (inactive)	> 30 µM (inactive)	> 30 µM (inactive)	> 30 µM (inactive)
CO[C@H]1C[C@@H]2CC[C@@H](C)[C@@](O)(O2)C(=O)C(=O)N2CCCC[C@H]2C(=O)O[C@H]([C@H](C)C[C@@H]2CC[C@@H](OCCO)[C@H](OC)C2)CC(=O)[C@H](C)/C=C(\C)[C@@H](O)[C@@H](OC)C(=O)[C@H](C)C[C@H](C)/C=C/C=C/C=C/1C [EVEROLIMUS]	> 30 µM (inactive)	> 30 µM (inactive)	> 30 µM (inactive)	> 30 µM (inactive)	> 30 µM (inactive)	> 30 µM (inactive)	> 30 µM (inactive)
COCCNCc1ccc(-c2cc3nccc(Oc4ccc(NC(=S)NC(=O)Cc5ccc(F)cc5)cc4F)c3s2)nc1 [GLESATINIB]	> 30 µM (inactive)	> 30 µM (inactive)	> 30 µM (inactive)	> 30 µM (inactive)	> 30 µM (inactive)	> 30 µM (inactive)	> 30 µM (inactive)
O=C1NC(=O)/C(=C/c2ccc3nccc(-c4ccncc4)c3c2)S1 [GSK-1059615]	> 30 µM (inactive)	> 30 µM (inactive)	> 30 µM (inactive)	> 30 µM (inactive)	> 30 µM (inactive)	> 30 µM (inactive)	> 30 µM (inactive)
Cn1cc(-c2ccc3nnc(C(F)(F)c4ccc5ncccc5c4)n3n2)cn1 [JNJ-38877605]	> 30 µM (inactive)	> 30 µM (inactive)	> 30 µM (inactive)	> 30 µM (inactive)	> 30 µM (inactive)	> 30 µM (inactive)	> 30 µM (inactive)
COC(=O)[C@@]1(O)C[C@H]2O[C@]1(C)n1c3ccccc3c3c4c(c5c6ccccc6n2c5c31)C(=O)NC4 [K-252A]	> 30 µM (inactive)	> 30 µM (inactive)	> 30 µM (inactive)	> 30 µM (inactive)	0.01 µM (active)	> 30 µM (inactive)	> 30 µM (inactive)
COc1cc2nccc(Oc3ccc(NC(=O)NC4CC4)c(Cl)c3)c2cc1C(N)=O [LENVATINIB]	> 30 µM (inactive)	> 30 µM (inactive)	> 30 µM (inactive)	> 30 µM (inactive)	0.565 µM (active)	> 30 µM (inactive)	> 30 µM (inactive)
Cn1cc(-c2ccc(F)c(C(F)(F)F)c2)nc1C1CCN(c2ncnc3[nH]ncc23)CC1 [LY-2584702]	> 30 µM (inactive)	> 30 µM (inactive)	> 30 µM (inactive)	> 30 µM (inactive)	> 30 µM (inactive)	> 30 µM (inactive)	> 30 µM (inactive)
O=C(O)[C@]1(Cc2cccc(Nc3nccs3)n2)CC[C@@H](Oc2cccc(Cl)c2F)CC1 [MK-5108]	> 30 µM (inactive)	> 30 µM (inactive)	> 30 µM (inactive)	> 30 µM (inactive)	> 30 µM (inactive)	> 30 µM (inactive)	> 30 µM (inactive)
Cc1ccc(-n2nc(C(C)(C)C)cc2NC(=O)NCc2cc(F)ccc2Oc2ccc3c(cnn3CCO)c2)cc1 [PEXMETINIB]	> 30 µM (inactive)	> 30 µM (inactive)	> 30 µM (inactive)	> 30 µM (inactive)	> 30 µM (inactive)	> 30 µM (inactive)	> 30 µM (inactive)
OCCn1cc(-c2cnc3nnn(Cc4ccc5ncccc5c4)c3n2)cn1 [PF-04217903]	> 30 µM (inactive)	> 30 µM (inactive)	> 30 µM (inactive)	> 30 µM (inactive)	> 30 µM (inactive)	> 30 µM (inactive)	> 30 µM (inactive)
